Measurements published in patent publication US6737383B1, “Herbicidal oxadiazolidines” (priority 1999, dated 2004).

What was measured:
guineagrass = experiment: Test D guineagrass; format: in vivo, Panicum maximum; details: Preemergence, 0 to 100 scale
How it was run: (§1)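 Seeds were sown in greenhouse pots, one species per pot or compartment. Compounds were in a non-phytotoxic solvent mixture with surfactant; preemergence applications went on the sandy loam surface within one day of planting. Injury was rated visually after 14 to 21 days, 0 (none) to 100 (complete control).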

Spanishneedles = experiment: Test D Spanishneedles; format: in vivo, Bidens bipinnata; details: Preemergence, 0 to 100 scale
How it was run: as §1

pitted morningglory = experiment: Test D pitted morningglory; format: in vivo, Ipomoea lacunosa; details: Preemergence, 0 to 100 scale
How it was run: as §1

dallisgrass = experiment: Test D dallisgrass; format: in vivo, Paspalum dilatatum; details: Preemergence, 0 to 100 scale
How it was run: as §1

surinam grass = experiment: Test D surinam grass; format: in vivo, Brachiaria decumbens; details: Preemergence, 0 to 100 scale
How it was run: as §1

Alexandergrass = experiment: Test D Alexandergrass; format: in vivo, Brachiaria plantaginea; details: Preemergence, 0 to 100 scale
How it was run: as §1

goosegrass = experiment: Test D goosegrass; format: in vivo, Eleusine indica; details: Postemergence, 0 to 100 scale
itchgrass = experiment: Test D itchgrass; format: in vivo, Rottboellia exaltata; details: Preemergence, 0 to 100 scale
How it was run: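 Scoring used a 0–100 visual injury scale, with 0 meaning no effect and 100 complete control, assessed 14–21 days after application alongside untreated pots. Preemergence treatments went onto sandy loam surfaces of separately potted seeds within a day of sowing.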

bermuda-grass = experiment: Test D bermudagrass; format: in vivo, Cynodon dactylon; details: Preemergence, 0 to 100 scale
How it was run: as §1

large crabgrass = experiment: Test D large crabgrass; format: in vivo, Digitaria sanguinalis; details: Preemergence, 0 to 100 scale
How it was run: as §1

Green foxtail [1] = experiment: Test D green foxtail; format: in vivo; details: Preemergence, 0 to 100 scale
How it was run: as §1

common ragweed = experiment: Test D common ragweed; format: in vivo, Ambrosia elatior; details: Preemergence, 0 to 100 scale
How it was run: as §1

Green foxtail [2] = experiment: Test D green foxtail; format: in vivo
How it was run: as §1

purple nutsedge = experiment: Test D purple nutsedge; format: in vivo, Cyperus rotundus; details: Preemergence, 0 to 100 scale
How it was run: as §1

common pursiane = experiment: Test D common purslane; format: in vivo, Portulaca oleracea; details: Preemergence, 0 to 100 scale
How it was run: as §1

[3] = Rate 16 g/ha, 0 no injury, 100 complete control
[4] = Rate 32 g/ha, 0 no injury, 100 complete control
[5] = Rate 64 g/ha, 0 no injury, 100 complete control
[6] = Rate 125 g/ha, 0 no injury, 100 complete control
[7] = Rate 64 g/ha, Preemergence; 0 to 100 scale, 0 no injury, 100 complete control
[8] = Rate 125 g/ha, Preemergence; 0 to 100 scale, 0 no injury, 100 complete control

CC(C)N(C(=O)n1oc(=O)n(C2CC2)c1=O)c1ccc(F)cc1 [Compound 242]
20: Plant response rating, P. morninglory (pitted morningglory; [6]) | Plant response rating, P. morninglory (pitted morningglory; Rate 250 g/ha) | Plant response rating, Surinam grass (surinam grass; [3])
65: Plant response rating, Dallisgrass (dallisgrass; [3]) | Plant response rating, Alexandergrass (Alexandergrass; [3]) | Plant response rating, Itchgrass (itchgrass; [3]) | Plant response rating, Itchgrass (itchgrass; [4])
98: Plant response rating, Guineagrass (guineagrass; [5]) | Plant response rating, Dallisgrass (dallisgrass; [5]) | Plant response rating, Dallisgrass (dallisgrass; [6]) | Plant response rating, Alexandergrass (Alexandergrass; [6]) | Plant response rating, Itchgrass (itchgrass; Rate 250 g/ha) | Plant response rating, Bermudagrass (bermuda-grass; [6])
90: Surinam grass plant response rating (surinam grass; [6]) | Plant response rating, Goosegrass (goosegrass; [3]) | Plant response rating, Large crabgrass (large crabgrass; [3])
10: Spanishneedles plant response rating (Spanishneedles; [6]) | Plant response rating, Spanishneedles (Spanishneedles; Rate 250 g/ha) | Plant response rating, P. morninglory (pitted morningglory; [5])
80: Plant response rating, Itchgrass (itchgrass; [6]) | Plant response rating, Bermudagrass (bermuda-grass; [3]) | Plant response rating, Green foxtail (Green foxtail [2]; Preemergence; Rate 16 g/ha; 0 to 100 scale, 0 no injury, 100 complete control) | Plant response rating, Green foxtail (Green foxtail [2]; Rate 16 g/ha; Preemergence; 0 to 100 scale, 0 no injury, 100 complete control)
70: Plant response rating, Guineagrass (guineagrass; [3]) | Plant response rating, Itchgrass (itchgrass; [5])
0: Plant response rating, Spanishneedles (Spanishneedles; [3]) | Plant response rating, Spanishneedles (Spanishneedles; [4]) | Spanishneedles plant response rating (Spanishneedles; [5]) | Plant response rating, P. morninglory (pitted morningglory; [3]) | Plant response rating, P. morninglory (pitted morningglory; [4]) | Plant response rating, Purple nutsedge (purple nutsedge; [3]) | Plant response rating, Purple nutsedge (purple nutsedge; [4]) | Purple nutsedge plant response rating (purple nutsedge; [5]) | Plant response rating, C. purslane (common pursiane; [3]) | Plant response rating, C. purslane (common pursiane; [4]) | Plant response rating, C. purslane (common pursiane; [5]) | Plant response rating, C. purslane (common pursiane; [6]) | Plant response rating, C. purslane (common pursiane; Rate 250 g/ha) | Plant response rating, C. purslane (common pursiane; Rate 500 g/ha)
60: Plant response rating, Purple nutsedge (purple nutsedge; Rate 250 g/ha) | Plant response rating, Purple nutsedge (purple nutsedge; Rate 500 g/ha)
85: Plant response rating, Guineagrass (guineagrass; [4]) | Plant response rating, Dallisgrass (dallisgrass; [4]) | Plant response rating, Surinam grass (surinam grass; [4]) | Surinam grass plant response rating (surinam grass; [5]) | Plant response rating, Alexandergrass (Alexandergrass; [4]) | Plant response rating, Bermudagrass (bermuda-grass; [4]) | Plant response rating, Bermudagrass (bermuda-grass; [5])
40: Plant response rating, Spanishneedles (Spanishneedles; Rate 500 g/ha) | Purple nutsedge plant response rating (purple nutsedge; [6])
100: Plant response rating, Guineagrass (guineagrass; [6]) | Plant response rating, Guineagrass (guineagrass; Rate 250 g/ha) | Plant response rating, Guineagrass (guineagrass; Rate 500 g/ha) | Plant response rating, P. morninglory (pitted morningglory; Rate 500 g/ha) | Plant response rating, Dallisgrass (dallisgrass; Rate 250 g/ha) | Plant response rating, Dallisgrass (dallisgrass; Rate 500 g/ha) | Plant response rating, Surinam grass (surinam grass; Rate 250 g/ha) | Plant response rating, Surinam grass (surinam grass; Rate 500 g/ha) | Plant response rating, Alexandergrass (Alexandergrass; [5]) | Plant response rating, Alexandergrass (Alexandergrass; Rate 250 g/ha) | Plant response rating, Alexandergrass (Alexandergrass; Rate 500 g/ha) | Plant response rating, Goosegrass (goosegrass; [4]) | Plant response rating, Goosegrass (goosegrass; [5]) | Plant response rating, Goosegrass (goosegrass; [6]) | Plant response rating, Goosegrass (goosegrass; Rate 250 g/ha) | Plant response rating, Itchgrass (itchgrass; Rate 500 g/ha) | Plant response rating, Bermudagrass (bermuda-grass; Rate 250 g/ha) | Plant response rating, Bermudagrass (bermuda-grass; Rate 500 g/ha) | Plant response rating, Large crabgrass (large crabgrass; [4]) | Plant response rating, Large crabgrass (large crabgrass; [5]) | Plant response rating, Large crabgrass (large crabgrass; [6]) | Plant response rating, Large crabgrass (large crabgrass; Rate 250 g/ha) | Plant response rating, Large crabgrass (large crabgrass; Rate 500 g/ha) | Plant response rating, Green foxtail (Green foxtail [1]; Rate 250 g/ha) | Plant response rating, Green foxtail (Green foxtail [1]; Rate 500 g/ha) | Plant response rating, C. ragweed (common ragweed; [3]) | Plant response rating, C. ragweed (common ragweed; [4]) | Plant response rating, C. ragweed (common ragweed; [5]) | Plant response rating, C. ragweed (common ragweed; [6]) | Plant response rating, C. ragweed (common ragweed; Rate 250 g/ha) | Plant response rating, C. ragweed (common ragweed; Rate 500 g/ha) | Plant response rating, Green foxtail (Green foxtail [2]; Preemergence; Rate 32 g/ha; 0 to 100 scale, 0 no injury, 100 complete control) | Green foxtail plant response rating (Green foxtail [2]; [7]) | Plant response rating, Green foxtail (Green foxtail [2]; [7]) | Green foxtail plant response rating (Green foxtail [2]; [8]) | Plant response rating, Green foxtail (Green foxtail [2]; [8]) | Plant response rating, Green foxtail (Green foxtail [2]; Rate 250 g/ha; Preemergence; 0 to 100 scale) | Plant response rating, Green foxtail (Green foxtail [2]; Rate 500 g/ha, Preemergence; 0 to 100 scale)
